Experiments:
[1] = biological target: Tyrosine-protein kinase ABL1 (Homo sapiens, UniProt P00519)
Bcr/Abl fusion protein = Bcr/Abl fusion protein (Homo sapiens, UniProt P00519); type: functional, cell-based, K562
Bcr/Abl fusion protein, sequence (P00519 whole entry, the tested form may be a part): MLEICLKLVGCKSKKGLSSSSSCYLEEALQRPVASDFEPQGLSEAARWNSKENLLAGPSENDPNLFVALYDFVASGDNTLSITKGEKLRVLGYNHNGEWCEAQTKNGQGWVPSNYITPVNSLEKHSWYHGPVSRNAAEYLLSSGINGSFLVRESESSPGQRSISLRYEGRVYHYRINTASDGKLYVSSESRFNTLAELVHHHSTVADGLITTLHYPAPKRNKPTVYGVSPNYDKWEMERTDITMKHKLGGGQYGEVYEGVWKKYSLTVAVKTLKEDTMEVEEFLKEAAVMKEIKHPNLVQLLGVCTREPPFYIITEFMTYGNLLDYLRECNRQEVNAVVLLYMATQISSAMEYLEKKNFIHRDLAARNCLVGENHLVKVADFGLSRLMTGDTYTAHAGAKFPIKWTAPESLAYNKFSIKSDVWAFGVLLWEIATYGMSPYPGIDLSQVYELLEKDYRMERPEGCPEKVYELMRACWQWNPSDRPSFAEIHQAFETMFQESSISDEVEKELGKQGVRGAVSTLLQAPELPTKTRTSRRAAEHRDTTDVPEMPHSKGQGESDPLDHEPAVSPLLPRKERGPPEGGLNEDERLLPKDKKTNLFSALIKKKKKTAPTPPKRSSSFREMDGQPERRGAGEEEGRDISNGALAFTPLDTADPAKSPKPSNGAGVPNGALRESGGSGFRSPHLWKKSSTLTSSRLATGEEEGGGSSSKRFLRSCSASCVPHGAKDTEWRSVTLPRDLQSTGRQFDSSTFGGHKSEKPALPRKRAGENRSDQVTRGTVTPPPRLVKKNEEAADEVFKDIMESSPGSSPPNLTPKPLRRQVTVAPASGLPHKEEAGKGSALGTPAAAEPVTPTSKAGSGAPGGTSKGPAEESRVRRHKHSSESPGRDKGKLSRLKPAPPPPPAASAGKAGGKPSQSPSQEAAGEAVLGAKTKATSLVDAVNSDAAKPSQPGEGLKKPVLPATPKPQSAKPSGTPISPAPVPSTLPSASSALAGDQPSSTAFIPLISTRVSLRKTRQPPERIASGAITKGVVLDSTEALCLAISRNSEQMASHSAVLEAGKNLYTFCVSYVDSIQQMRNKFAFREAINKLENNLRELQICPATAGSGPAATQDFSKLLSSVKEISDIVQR
Bcr/Abl fusion protein, sequence (P11274 whole entry, further chain, the tested form may be a part): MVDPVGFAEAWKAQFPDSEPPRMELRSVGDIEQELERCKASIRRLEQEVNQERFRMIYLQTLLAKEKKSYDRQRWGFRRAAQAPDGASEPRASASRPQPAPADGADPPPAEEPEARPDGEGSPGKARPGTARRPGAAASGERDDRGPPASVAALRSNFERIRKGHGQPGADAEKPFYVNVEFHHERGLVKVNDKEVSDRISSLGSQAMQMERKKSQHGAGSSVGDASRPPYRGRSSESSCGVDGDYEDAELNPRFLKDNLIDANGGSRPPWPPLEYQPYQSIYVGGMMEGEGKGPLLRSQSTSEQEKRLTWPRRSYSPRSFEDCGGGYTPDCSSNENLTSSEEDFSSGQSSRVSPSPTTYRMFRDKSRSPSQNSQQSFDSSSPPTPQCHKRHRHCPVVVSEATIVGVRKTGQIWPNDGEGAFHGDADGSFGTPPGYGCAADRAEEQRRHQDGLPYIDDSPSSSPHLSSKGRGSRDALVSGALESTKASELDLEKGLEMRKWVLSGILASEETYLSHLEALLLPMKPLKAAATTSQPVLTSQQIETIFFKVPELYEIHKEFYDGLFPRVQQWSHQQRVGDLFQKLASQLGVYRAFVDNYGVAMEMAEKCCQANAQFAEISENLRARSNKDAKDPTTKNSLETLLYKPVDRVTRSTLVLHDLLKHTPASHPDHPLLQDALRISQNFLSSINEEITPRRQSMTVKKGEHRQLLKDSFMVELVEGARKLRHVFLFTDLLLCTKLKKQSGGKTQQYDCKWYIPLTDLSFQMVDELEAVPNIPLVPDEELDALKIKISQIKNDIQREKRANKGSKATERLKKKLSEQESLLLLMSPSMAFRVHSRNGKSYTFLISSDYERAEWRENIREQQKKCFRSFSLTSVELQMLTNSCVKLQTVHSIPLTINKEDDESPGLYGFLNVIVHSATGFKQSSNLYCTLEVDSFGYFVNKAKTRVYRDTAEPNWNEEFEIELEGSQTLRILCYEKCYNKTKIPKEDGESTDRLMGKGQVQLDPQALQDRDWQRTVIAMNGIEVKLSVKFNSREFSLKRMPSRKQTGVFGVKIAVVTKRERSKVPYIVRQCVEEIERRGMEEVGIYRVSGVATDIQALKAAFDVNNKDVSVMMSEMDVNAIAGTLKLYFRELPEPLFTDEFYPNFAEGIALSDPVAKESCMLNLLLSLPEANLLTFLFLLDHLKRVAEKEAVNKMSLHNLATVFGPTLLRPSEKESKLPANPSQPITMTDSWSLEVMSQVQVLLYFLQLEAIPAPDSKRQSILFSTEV

Tyrosine-protein kinase ABL1, sequence (P00519 whole entry, the tested form may be a part): as the sequence (P00519 whole entry, the tested form may be a part) above

Compound: COc1ccc(Oc2ccc3[nH]nc(-c4nc5cc(N6CCC(N7CCCCC7)CC6)ccc5[nH]4)c3c2)cc1
- IC50 [1]: 220 nM

Compound: COc1ccc2[nH]nc(-c3nc4ccc(N5CCC(N6CCCCC6)CC5)cc4[nH]3)c2c1
- IC50 [1]: 230 nM

Compound: c1ccc(COc2ccc3c(-c4nc5ccc(N6CCC(N7CCCCC7)CC6)cc5[nH]4)n[nH]c3c2)cc1
- IC50 [1]: 200 nM

Compound: c1ccc(CN2CCC(Nc3ccc4[nH]nc(-c5nc6cc(N7CCC(N8CCCCC8)CC7)ccc6[nH]5)c4c3)CC2)cc1
- EC50 (Bcr/Abl fusion protein): 70 nM
- IC50 [1]: 7 nM

Compound: COc1cc2[nH]nc(-c3nc4ccc(N5CCC(N6CCCCC6)CC5)cc4[nH]3)c2cc1OCc1ccccc1
- IC50 [1]: 3 nM

Compound: c1coc(CNc2ccc3[nH]nc(-c4nc5cc(N6CCC(N7CCCCC7)CC6)ccc5[nH]4)c3c2)c1
- EC50 (Bcr/Abl fusion protein): 30 nM
- IC50 [1]: 60 nM

Compound: COc1ccccc1Oc1ccc2[nH]nc(-c3nc4cc(N5CCC(N6CCCCC6)CC5)ccc4[nH]3)c2c1
- IC50 [1]: 20 nM

Compound: c1ccc(Oc2ccc3[nH]nc(-c4nc5ccc(N6CCC(N7CCCCC7)CC6)cc5[nH]4)c3c2)cc1
- IC50 [1]: 30 nM

Compound: c1ccc(COc2cc3[nH]nc(-c4nc5cc(N6CCC(N7CCCCC7)CC6)ccc5[nH]4)c3cc2OCc2ccccc2)cc1
- IC50 [1]: 900 nM

Compound: c1csc(CNc2ccc3[nH]nc(-c4nc5cc(N6CCC(N7CCCCC7)CC6)ccc5[nH]4)c3c2)n1
- EC50 (Bcr/Abl fusion protein): 10 nM
- IC50 [1]: 10 nM

Compound: c1ccc(COc2ccc3[nH]nc(-c4nc5ccc(N6CCC(N7CCCCC7)CC6)cc5[nH]4)c3c2)cc1
- EC50 (Bcr/Abl fusion protein): 970 nM
- IC50 [1]: 60 nM

Compound: O=C(Nc1ccc2[nH]nc(-c3nc4ccc(N5CCC(N6CCCCC6)CC5)cc4[nH]3)c2c1)c1ccco1
- EC50 (Bcr/Abl fusion protein): 560 nM
- IC50 [1]: 150 nM

Compound: CC(C)(C)NC(=O)Nc1ccc2[nH]nc(-c3nc4ccc(N5CCC(N6CCCCC6)CC5)cc4[nH]3)c2c1
- EC50 (Bcr/Abl fusion protein): 360 nM
- IC50 [1]: 30 nM

Compound: c1ccc2c(-c3nc4ccc(N5CCC(N6CCCCC6)CC5)cc4[nH]3)n[nH]c2c1
- IC50 [1]: 600 nM

Compound: COc1cccc(Oc2ccc3[nH]nc(-c4nc5cc(N6CCC(N7CCCCC7)CC6)ccc5[nH]4)c3c2)c1
- IC50 [1]: 60 nM

Compound: c1ccc(CNc2ccc3[nH]nc(-c4nc5ccc(N6CCC(N7CCCCC7)CC6)cc5[nH]4)c3c2)cc1
- EC50 (Bcr/Abl fusion protein): 1800 nM
- IC50 [1]: 130 nM

— ChEMBL document CHEMBL1137421, “3-Benzimidazol-2-yl-1H-indazoles as potent c-ABL inhibitors” (Bioorg Med Chem Lett, 2006)
